Assay results as given in PubChem BioAssay (NCI).
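96-well plates; 48 h exposure; 5 concentrations. Endpoints by linear interpolation between flanking doses. Not reached: highest tested concentration assigned. GI50 = concentration required for 50% inhibition of growth. TGI is the concentration that stops growth completely.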

Experiments:
Assay in all cases: DTP human tumour cell line panel, 48 h
HCC-2998 colon = test system: HCC-2998 colon
COLO 205 colon = test system: COLO 205 colon
HCT-15 colon = test system: HCT-15 colon
MDA-MB-231 breast = test system: MDA-MB-231 breast
EKVX NSCLC = test system: EKVX NSCLC
HCT-116 colon = test system: HCT-116 colon
CAKI-1 renal = test system: CAKI-1 renal
SNB-75 CNS = test system: SNB-75 CNS
NCI/ADR-RES ovarian = test system: NCI/ADR-RES ovarian
SK-MEL-5 melanoma = test system: SK-MEL-5 melanoma
UACC-257 melanoma = test system: UACC-257 melanoma
BT-549 breast = test system: BT-549 breast
MDA-MB-435 = test system: MDA-MB-435
NCI-H23 lung = test system: NCI-H23 lung
OVCAR-3 ovarian = test system: OVCAR-3 ovarian
HL-60(TB) leukemia = test system: HL-60(TB) leukemia
TK-10 renal = test system: TK-10 renal
OVCAR-4 ovarian = test system: OVCAR-4 ovarian
NCI-H226 lung = test system: NCI-H226 lung
UACC-62 melanoma = test system: UACC-62 melanoma
RPMI-8226 leukemia = test system: RPMI-8226 leukemia
A498 renal = test system: A498 renal
OVCAR-5 ovarian = test system: OVCAR-5 ovarian
HOP-62 NSCLC = test system: HOP-62 NSCLC
PC-3 prostate = test system: PC-3 prostate
HS 578T breast = test system: HS 578T breast
NCI-H522 lung = test system: NCI-H522 lung
786-0 renal = test system: 786-0 renal
IGROV1 ovarian = test system: IGROV1 ovarian
U251 CNS = test system: U251 CNS
UO-31 renal = test system: UO-31 renal
SK-OV-3 ovarian = test system: SK-OV-3 ovarian
OVCAR-8 ovarian = test system: OVCAR-8 ovarian
DU-145 prostate = test system: DU-145 prostate
LOX IMVI melanoma = test system: LOX IMVI melanoma
MALME-3M melanoma = test system: MALME-3M melanoma
SK-MEL-2 melanoma = test system: SK-MEL-2 melanoma
SK-MEL-28 melanoma = test system: SK-MEL-28 melanoma
SNB-19 CNS = test system: SNB-19 CNS
SR leukemia = test system: SR leukemia
MDA-MB-468 breast = test system: MDA-MB-468 breast
SF-295 CNS = test system: SF-295 CNS
NCI-H460 lung = test system: NCI-H460 lung
ACHN renal = test system: ACHN renal
T-47D breast = test system: T-47D breast
SW-620 colon = test system: SW-620 colon
MCF7 breast = test system: MCF7 breast
MOLT-4 leukemia = test system: MOLT-4 leukemia
HOP-92 NSCLC = test system: HOP-92 NSCLC
SF-539 CNS = test system: SF-539 CNS
HT29 colon = test system: HT29 colon
K-562 leukemia = test system: K-562 leukemia
SF-268 CNS = test system: SF-268 CNS
A549 NSCLC = test system: A549 NSCLC
CCRF-CEM leukemia = test system: CCRF-CEM leukemia
KM12 colon = test system: KM12 colon
SN12C renal = test system: SN12C renal
RXF 393 renal = test system: RXF 393 renal
M14 melanoma = test system: M14 melanoma

C#CCN(C)CCCOc1ccc(N(C)C(=O)c2cc(C(C)C)c(O)cc2O)cc1Cl
GI50 (HCC-2998 colon): 0.224 µM
TGI (HCC-2998 colon): 2.04 µM
GI50 (COLO 205 colon): 2.83 µM
TGI (COLO 205 colon): 12.5 µM
GI50 (HCT-15 colon): 0.0827 µM
TGI (HCT-15 colon): 12.7 µM
GI50 (MDA-MB-231 breast): 0.213 µM
TGI (MDA-MB-231 breast): 10.9 µM
GI50 (EKVX NSCLC): 0.526 µM
TGI (EKVX NSCLC): 12.7 µM
GI50 (HCT-116 colon): 0.0889 µM
TGI (HCT-116 colon): 13.3 µM
GI50 (CAKI-1 renal): 0.325 µM
TGI (CAKI-1 renal): 14.9 µM
GI50 (SNB-75 CNS): 0.977 µM
TGI (SNB-75 CNS): 17.8 µM
GI50 (NCI/ADR-RES ovarian): 0.305 µM
TGI (NCI/ADR-RES ovarian): 8.93 µM
GI50 (SK-MEL-5 melanoma): 0.357 µM
TGI (SK-MEL-5 melanoma): 2.02 µM
GI50 (UACC-257 melanoma): 0.521 µM
TGI (UACC-257 melanoma): 13.8 µM
GI50 (BT-549 breast): 1.09 µM
TGI (BT-549 breast): 15.4 µM
GI50 (MDA-MB-435): 0.133 µM
TGI (MDA-MB-435): 12.4 µM
GI50 (NCI-H23 lung): 0.298 µM
TGI (NCI-H23 lung): 15 µM
GI50 (OVCAR-3 ovarian): 0.509 µM
TGI (OVCAR-3 ovarian): 16.8 µM
GI50 (HL-60(TB) leukemia): 0.0533 µM
TGI (HL-60(TB) leukemia): 9.1 µM
GI50 (TK-10 renal): 0.323 µM
TGI (TK-10 renal): 16.8 µM
GI50 (OVCAR-4 ovarian): 2.01 µM
TGI (OVCAR-4 ovarian): 22.2 µM
GI50 (NCI-H226 lung): 0.557 µM
TGI (NCI-H226 lung): 19.8 µM
GI50 (UACC-62 melanoma): 0.168 µM
TGI (UACC-62 melanoma): 0.913 µM
GI50 (RPMI-8226 leukemia): 0.266 µM
TGI (RPMI-8226 leukemia): 20.5 µM
GI50 (A498 renal): 0.642 µM
TGI (A498 renal): 16.5 µM
GI50 (OVCAR-5 ovarian): 0.477 µM
TGI (OVCAR-5 ovarian): 16 µM
GI50 (HOP-62 NSCLC): 0.249 µM
TGI (HOP-62 NSCLC): 19.6 µM
GI50 (PC-3 prostate): 0.161 µM
TGI (PC-3 prostate): 16 µM
GI50 (HS 578T breast): 1.33 µM
TGI (HS 578T breast): 27.1 µM
GI50 (NCI-H522 lung): 0.165 µM
TGI (NCI-H522 lung): 14.1 µM
GI50 (786-0 renal): 2.6 µM
TGI (786-0 renal): 18.7 µM
GI50 (IGROV1 ovarian): 0.172 µM
TGI (IGROV1 ovarian): 14.7 µM
GI50 (U251 CNS): 0.283 µM
TGI (U251 CNS): 16 µM
GI50 (UO-31 renal): 0.148 µM
TGI (UO-31 renal): 14.2 µM
GI50 (SK-OV-3 ovarian): 0.0534 µM
TGI (SK-OV-3 ovarian): 12.9 µM
GI50 (OVCAR-8 ovarian): 0.202 µM
TGI (OVCAR-8 ovarian): 21 µM
GI50 (DU-145 prostate): 0.0592 µM
TGI (DU-145 prostate): 18.2 µM
GI50 (LOX IMVI melanoma): 0.129 µM
TGI (LOX IMVI melanoma): 0.303 µM
GI50 (MALME-3M melanoma): 0.195 µM
TGI (MALME-3M melanoma): 2.23 µM
GI50 (SK-MEL-2 melanoma): 1.72 µM
TGI (SK-MEL-2 melanoma): 18.6 µM
GI50 (SK-MEL-28 melanoma): 0.386 µM
TGI (SK-MEL-28 melanoma): 13.3 µM
GI50 (SNB-19 CNS): 0.435 µM
TGI (SNB-19 CNS): 15.4 µM
GI50 (SR leukemia): 0.0409 µM
TGI (SR leukemia): 19.4 µM
GI50 (MDA-MB-468 breast): 0.0962 µM
TGI (MDA-MB-468 breast): 0.462 µM
GI50 (SF-295 CNS): 0.348 µM
TGI (SF-295 CNS): 12.7 µM
GI50 (NCI-H460 lung): 0.0679 µM
TGI (NCI-H460 lung): 10.9 µM
GI50 (ACHN renal): 0.0963 µM
TGI (ACHN renal): 13.5 µM
GI50 (T-47D breast): 0.0853 µM
TGI (T-47D breast): 13.5 µM
GI50 (SW-620 colon): 0.102 µM
TGI (SW-620 colon): 13.9 µM
GI50 (MCF7 breast): 0.0522 µM
TGI (MCF7 breast): 15.4 µM
GI50 (MOLT-4 leukemia): 0.101 µM
TGI (MOLT-4 leukemia): 12.5 µM
GI50 (HOP-92 NSCLC): 0.328 µM
TGI (HOP-92 NSCLC): 3.59 µM
GI50 (SF-539 CNS): 0.325 µM
TGI (SF-539 CNS): 12.9 µM
GI50 (HT29 colon): 3.27 µM
TGI (HT29 colon): 13.9 µM
GI50 (K-562 leukemia): 0.0788 µM
TGI (K-562 leukemia): 19.4 µM
GI50 (SF-268 CNS): 1.32 µM
TGI (SF-268 CNS): 25.9 µM
GI50 (A549 NSCLC): 0.188 µM
TGI (A549 NSCLC): 15.4 µM
GI50 (CCRF-CEM leukemia): 0.0625 µM
TGI (CCRF-CEM leukemia): 13.3 µM
GI50 (KM12 colon): 0.105 µM
TGI (KM12 colon): 10.9 µM
GI50 (SN12C renal): 0.0925 µM
TGI (SN12C renal): 14.2 µM
GI50 (RXF 393 renal): 0.685 µM
TGI (RXF 393 renal): 13.8 µM
GI50 (M14 melanoma): 0.406 µM
TGI (M14 melanoma): 13.8 µM
